We go through 26 compounds from patent US11773057B2, “Naphthalenesulfonamide compound, preparation method, and application” (CHINA PHARMACEUTICAL UNIVERSITY, priority 2019, dated 2023).

T1 sequence (Q14145 321-609 limits assumed): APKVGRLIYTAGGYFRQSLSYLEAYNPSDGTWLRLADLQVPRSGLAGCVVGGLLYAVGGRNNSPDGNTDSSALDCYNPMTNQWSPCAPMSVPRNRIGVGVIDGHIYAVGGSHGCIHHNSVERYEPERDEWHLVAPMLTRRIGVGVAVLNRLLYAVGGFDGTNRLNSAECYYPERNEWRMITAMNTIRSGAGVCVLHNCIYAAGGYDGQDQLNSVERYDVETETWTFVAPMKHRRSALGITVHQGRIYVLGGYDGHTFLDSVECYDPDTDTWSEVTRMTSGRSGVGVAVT

One data set has as its target T1, Keap1-Nrf2 PPI (Keap1 kelch domain protein, FITC labeled Nrf2 9 peptide) (Homo sapiens, UniProt Q14145).
T1 construct: 10 μL 12 nm Keap1 kelch domain protein
Briefly: Fluorescence polarization based Keap1-Nrf2 PPI competitive inhibition experiment (FP experiment). It counts as binding. The settings on record: FP experiment; general formula III compounds; unit inferred. Here is the method:
1. Keap1-Nrf2 PPI Competitive Inhibition Test Based on Fluorescence Polarization (FP Experiment)
The 384-well blackboard model 3676 produced by Corning is used in FP experiment, with a total volume of reaction of 40 μL. 20 μL compound, 10 μL 4 nm FITC labeled Nrf2 9 peptide, 10 μL 12 nm Keap1 kelch domain protein are added to the well in order. 20 μL 200 nM DDO-1002, 10 μL 4 nM of the FITC-labeled Nrf2 9 peptide, 10 μL 12 nM of Keap1 Ketch domain protein are used in the positive control; 20 μL HEPES buffer, 10 μL 4 nM of the FITC-labeled Nrf2 9 peptide, 10 μL, 12 nM of Keap1 Kelch domain protein are used in the negative control; 10 μL 4 nM of the FITC-labeled Nrf2 9 peptide, 30 μL of HEPES buffer are used in the blank control. After addition is complete, they are incubated for 30 min at room temperature. The detection instrument is a SpectraMax Multi-Mode Microplate Reader (Molecular Devices), the excitation light wavelength selected is 485 nm, the emission light wavelength is 545 nm, and the fluorescence intensity in the horizontal and vertical directions is detected to calculate the polarization value. The inhibition rate is calculated as: inhibition %=[…]/(Pmax−Pmin) wherein Pobs is the polarization value of the compound well, Pmax is the polarization value of the negative control well, and Pmin is the polarization value of the blank well. Data treatment is performed using GraphPad Prism, and IC50 of the compound is calculated using a concentration-inhibition rate curve. The IC50 values for each compound are as previously described.
`C#CCN(c1ccc(NS(=O)(=O)c2ccc(C(C)C)cc2)c2ccccc12)[C@@H](C)CC(=O)O` [DDO-1196, (S)-3-((4-((4-isopropylphenyl)sulfonamido)naphthalen-1-yl)(prop-2-yn-1-yl)amino) butanoic acid] gave an IC50 of 220 nM.
On to `C#CCN(c1ccc(NS(=O)(=O)c2ccccc2OC)c2ccccc12)[C@@H](C)CC(=O)O` [DDO-1198], for which the IC50 stood at 2000 nM.
The same measure, in the same setting: under `C#CCN(c1ccc(NS(=O)(=O)c2cccc(OC)c2)c2ccccc12)[C@@H](C)CC(=O)O` [DDO-1200, (S)-3-((4-((3-methoxyphenyl)sulfonamido)naphthalen-1-yl)(prop-2-yn-1-yl)amino) butanoic acid] stands 240 nM; under `C#CCN(c1ccc(NS(=O)(=O)c2ccccc2C)c2ccccc12)[C@@H](C)CC(=O)O` [DDO-1202, (S)-3-((4-((2-methylphenyl)sulfonamido)naphthalen-1-yl)(prop-2-yn-1-yl)amino) butanoic acid], 240 nM.
On to `C#CCN(c1ccc(NS(=O)(=O)c2ccc(C)cc2C)c2ccccc12)[C@@H](C)CC(=O)O` [DDO-1204, (S)-3-((4-((2,4-dimethylphenyl)sulfonamido)naphthalen-1-yl) (prop-2-yn-1-yl)amino) butanoic acid], for which the IC50 was determined as 93 nM.
For the compound `C#CCN(c1ccc(NS(=O)(=O)c2c(C)cc(C)cc2C)c2ccccc12)[C@@H](C)CC(=O)O` [DDO-1206, (S)-3-(prop-2-yn-1-yl(4-((2,4,6-trimethylphenyl)sulfonamido)naphthalen-1-yl)amino) butanoic acid], the IC50 worked out at 41 nM.

Staying with this data set, now noted: FP experiment; general formula IV compounds.
For the compound `C#CCN(c1ccc(N(CC(=O)O)S(=O)(=O)c2ccc(C(C)C)cc2)c2ccccc12)[C@@H](C)CC(=O)O` [DDO-1197, (S)-3-((4-((N-(carboxymethyl)-4-isopropylphenyl)sulfonamido)naphthalen-1-yl)(prop-2-yn-1-yl)amino) butanoic acid], the IC50 amounted to 80 nM.
`C#CCN(c1ccc(N(CC(=O)O)S(=O)(=O)c2ccccc2OC)c2ccccc12)[C@@H](C)CC(=O)O` [DDO-1199] gave an IC50 of 290 nM.
Regarding `C#CCN(c1ccc(N(CC(=O)O)S(=O)(=O)c2cccc(OC)c2)c2ccccc12)[C@@H](C)CC(=O)O` [DDO-1201], the IC50 amounted to 130 nM.
`C#CCN(c1ccc(N(CC(=O)O)S(=O)(=O)c2ccccc2C)c2ccccc12)[C@@H](C)CC(=O)O` [DDO-1203, (S)-3-((4-((N-(Carboxymethyl)-methylphenyl)sulfonamido)naphthalen-1-yl)(prop-2-yn-1-yl)amino) butanoic acid]: the IC50 turned out to be 170 nM.
Consider `C#CCN(c1ccc(N(CC(=O)O)S(=O)(=O)c2ccc(C)cc2C)c2ccccc12)[C@@H](C)CC(=O)O` [DDO-1205], for which the half-maximal inhibitory concentration (IC50) is 27 nM.
On the same count and under the same terms, the same measure for `C#CCN(c1ccc(N(CC(=O)O)S(=O)(=O)c2c(C)cc(C)cc2C)c2ccccc12)[C@@H](C)CC(=O)O` [DDO-1207, (S)-3-((4-((N-(Carboxymethyl)-2,4,6-trimethylphenyl)sulfonamidyl)naphthalen-1-yl)(prop-2-yn-1-yl)amino) butanoic acid]: 15 nM; for `C#CCN(c1ccc(N(CC(=O)O)S(=O)(=O)c2c(C)c(C)cc(C)c2C)c2ccccc12)[C@@H](C)CC(=O)O` [DDO-1209, (S)-3-((4-((N-(Carboxymethyl)-2,3,5,6-tetramethylphenyl)sulfonamido)naphthalen-1-yl)(prop-2-yn-1-yl)amino) butanoic acid]: 150 nM.

The same data set, now with this note: FP experiment; general formula V / VI compounds.
`C#CCN(c1ccc(NS(=O)(=O)c2ccc(OC)c(OC)c2)c2ccccc12)[C@@H](C)CC(=O)O` [DDO-1210, (S)-3-((4-((3,4-dimethoxyphenyl)sulfonamido)naphthalen-1-yl) (prop-2-yn-1-yl)amino) butanoic acid] had an IC50 of 72 nM.
The same measure, in the same setting: the same measure for `C#CCN(c1ccc(N(CC(=O)O)S(=O)(=O)c2ccc(OC)c(OC)c2)c2ccccc12)[C@@H](C)CC(=O)O` [DDO-1211, (S)-3-((4-((N-(Carboxymethyl)-3,4-dimethoxyphenyl)sulfonamido)naphthalen-1-yl)(prop-2-yn-1-yl)amino) butanoic acid]: 59 nM; for `C#CCN(c1ccc(NS(=O)(=O)c2ccc(OC)c(F)c2)c2ccccc12)[C@@H](C)CC(=O)O` [DDO-1212, (S)-3-((4-((3-fluoro-4-methoxyphenyl)sulfonamido)naphthalen-1-yl) (prop-2-yn-1-yl)amino) butanoic acid]: 277 nM.
Same read-out and setting: the same measure for `C#CCN(c1ccc(N(CC(=O)O)S(=O)(=O)c2ccc(OC)c(F)c2)c2ccccc12)[C@@H](C)CC(=O)O` [DDO-1213]: 155 nM; for `C#CCN(c1ccc(NS(=O)(=O)c2ccc(OC)c(Cl)c2)c2ccccc12)[C@@H](C)CC(=O)O` [DDO-1214]: 75 nM.
Still for that read-out and setting: under `C#CCN(c1ccc(N(CC(=O)O)S(=O)(=O)c2ccc(OC)c(Cl)c2)c2ccccc12)[C@@H](C)CC(=O)O` [DDO-1215] stands 40 nM.
`C#CCN(c1ccc(NS(=O)(=O)c2ccc(OC)c(C)c2)c2ccccc12)[C@@H](C)CC(=O)O` [DDO-1216, (S)-3-((4-((4-methoxy-3-methylphenyl)sulfonamido)naphthalen-1-yl) (prop-2-yn-1-yl)amino) butanoic acid] came in with an IC50 of 72 nM.
Same read-out and setting: under `C#CCN(c1ccc(N(CC(=O)O)S(=O)(=O)c2ccc(OC)c(C)c2)c2ccccc12)[C@@H](C)CC(=O)O` [DDO-1217, (S)-3-((4-((N-(Carboxymethyl)-4-methoxy-3-methylphenyl)sulfonamido)naphthalen-1-yl)(prop-2-yn-1-yl)amino) butanoic acid] stands 37 nM; under `C#CCN(c1ccc(NS(=O)(=O)c2c(C)cc(OC)c(C)c2C)c2ccccc12)[C@@H](C)CC(=O)O` [DDO-1218, (S)-3-((4-((4-methoxy-2,3,6-trimethylphenyl)sulfonamido)naphthalen-1-yl) (prop-2-yn-1-yl)amino) butanoic acid], 23 nM.
As for `C#CCN(c1ccc(N(CC(=O)O)S(=O)(=O)c2c(C)cc(OC)c(C)c2C)c2ccccc12)[C@@H](C)CC(=O)O` [DDO-1219, (S)-3-((4-((N-(Carboxymethyl)-4-methoxy-2,3,6-trimethylphenyl)sulfonamidyl)naphthalen-1-yl)(prop-2-yn-1-yl)amino) butanoic acid], the IC50 worked out at 7.1 nM.
Same read-out and setting: under `C#CCN(c1ccc(NS(=O)(=O)c2c(C)cc(OC)cc2C)c2ccccc12)[C@@H](C)CC(=O)O` [DDO-1220] stands 13 nM; under `C#CCN(c1ccc(NS(=O)(=O)c2ccc3c(c2)CCO3)c2ccccc12)[C@@H](C)CC(=O)O` [DDO-1222, (S)-3-((4-((2,3-dihydrobenzofuran)-5-sulfonamido)naphthalen-1-yl) (prop-2-yn-1-yl)amino) butanoic acid], 160 nM.
As for `C#CCN(c1ccc(N(CC(=O)O)S(=O)(=O)c2ccc3c(c2)CCO3)c2ccccc12)[C@@H](C)CC(=O)O` [DDO-1223, (S)-3-((4-((N-(Carboxymethyl)-2,3-dihydrobenzofuran)-5-sulfonamido)naphthalen-1-yl)(prop-2-yn-1-yl)amino) butanoic acid], the IC50 worked out at 86 nM.

The test system of a further data set is HepG2-ARE-C8 cells. As to the kind of experiment: ARE luciferase reporter gene experiment. It counts as cell-based. The following applies: compound acts 12 h, ratio to DMSO group, FIG. 1, in words. As for the experimental part:
2. ARE Luciferase Reporter Gene Experiment
HepG2-ARE-C8 cells in log growth phase (these cells are given by A. N. Tony Kong of Rutgers University) are digested with 0.1% pancreatin to prepare a cell suspension, the cell suspension is added to a 96-well microtiter plate at a cell concentration of 4×10^5/mL, added 100 μL per well, and after overnight culture, a DMSO group serves as a negative control, t-BHQ serves as a positive control, and a cell culture lysis reagent serves as a background value. The compound is allowed to act for 12 h, three replicate wells were provided, the growth medium is carefully pipetted from the cells to be examined, 100 μL of pre-cooled. […] 100 μL luciferase detection reagent is added to each well and read immediately. […] Typical delay time is 2 seconds, typical reading time is 10 seconds, and the last measured data is divided from the DMSO group. […]
By a fluorescence polarization based Keap1-Nrf2 PPI competitive inhibition experiment we have shown that on the target level, some compounds (compound numbers see FIG. 1) are able to efficiently compete for binding to Keap1 and thereby activating Nrf2. […] When luciferin is present in a substrate, the […], and the activation capability of a compound on Nrf2 is indirectly reflected by means of fluorescence intensity. […]
For `C#CCN(c1ccc(NS(=O)(=O)c2c(C)cc(OC)cc2C)c2ccccc12)[C@@H](C)CC(=O)O` [DDO-1220], the “ARE luciferase reporter gene activity (fold induction), cell activity” value is “has the optimal cell activity”.
